Values of other authors as cited in US20080293652A1, “Combination of Ad-P53 and Chemotherapy for the Treatment of Tumours” (priority 2004, published 2008).
Numbered stars: 1 amine (or outer) side, 2 acyl side, 3 side chain; on linkers, the order of the positions; unused ones are H or OH. Bridge positions count the residues as written; N and C are the ends. Square brackets hold non-standard residues; d marks the D form. Peptide text beside a SMILES is read from it. I, II: the chains in the order shown. Actinocin(9to1) = Cc1c2oc3c(C)ccc(C(=O)[*:1])c3nc-2c(C(=O)[*:2])c(N)c1=O; NMeV = CN[C@H](C(=O)O)C(C)C; Sar = CNCC(=O)O

Columns and labels:
[1] = for part of the dose excreted / detected intact in the urine: in vivo
multiple myeloma = settings: oral administration

SMILES | part of the dose excreted / detected intact in the urine [1] | further results
CC[C@]1(O)C[C@H]2CN(CCc3c([nH]c4ccccc34)[C@@](C(=O)OC)(c3cc4c(cc3OC)N(C=O)[C@H]3[C@@](O)(C(=O)OC)[C@H](OC(C)=O)[C@]5(CC)C=CCN6CC[C@]43[C@@H]65)C2)C1 [Vincristine] | – | terminal half-life (clearance from plasma) ([1]; multiphasic clearance): about 24 hours
N[C@@H](Cc1ccc(N(CCCl)CCCl)cc1)C(=O)O [Melphalan, 4-[bis(2-chloroethyl)amino]-L-phenylalanine] | – | part of patients showing a favorable response (multiple myeloma): one third to one half
CC[C@]1(O)C[C@@H]2CN(CCc3c([nH]c4ccccc34)[C@@](C(=O)OC)(c3cc4c(cc3OC)N(C)[C@H]3[C@@](O)(C(=O)OC)[C@H](OC(C)=O)[C@]5(CC)C=CCN6CC[C@]43[C@@H]65)C2)C1 [Vinblastine] | Approximately 15% | –
Cc1c2oc3c(C)ccc(C(=O)N[C@@H]4C(=O)N[C@H](C(C)C)C(=O)N5CCC[C@H]5C(=O)N(C)CC(=O)N(C)[C@@H](C(C)C)C(=O)O[C@@H]4C)c3nc-2c(C(=O)N[C@@H]2C(=O)N[C@H](C(C)C)C(=O)N3CCC[C@H]3C(=O)N(C)CC(=O)N(C)[C@@H](C(C)C)C(=O)O[C@@H]2C)c(N)c1=O [Actinomycin D] (I: T[dV]P[Sar][NMeV] / II: T[dV]P[Sar][NMeV]; ester I:1-I:C, II:1-II:C; linker I:N-II:N via Actinocin(9to1)) | 10% | –
